Patent publication US6294580A, “Substituted 4-hydroxy-phenylalcanoic acid derivatives with agonist activity to PPAR-gamma” (Glaxo Wellcome Inc., priority 1996, dated 2001)
pEC50, pKi: −log10 of the molar value. Counter-ions that a name gives are not always drawn. Like-named read-outs stand apart in the source and are kept apart here.

What was measured:
PPARg = experiment: PPARgamma Transient Cotransfection Assay; assay type: cell-based; details: CAT reporter; for pEC50: read-out: PPARg EC50
hPPARgamma = molecular target: T1, hPPARgamma (Homo sapiens, UniProt P37231); experiment: hPPARgamma Ligand Binding Assay; details: competition with [3H]-BRL 49,653, room temperature 2 hrs
T1 construct: 10x-histidine tag (N); made in house; host or cells: E. coli
T1 sequence (P37231 195-475 isoform P37231-2): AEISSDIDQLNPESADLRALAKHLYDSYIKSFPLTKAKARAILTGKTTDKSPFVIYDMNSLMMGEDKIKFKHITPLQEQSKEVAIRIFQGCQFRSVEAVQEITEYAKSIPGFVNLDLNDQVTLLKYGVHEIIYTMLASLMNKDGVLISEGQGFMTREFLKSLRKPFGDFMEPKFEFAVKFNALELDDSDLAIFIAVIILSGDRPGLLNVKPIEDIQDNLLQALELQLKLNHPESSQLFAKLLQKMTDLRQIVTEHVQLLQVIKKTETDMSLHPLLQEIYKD
Experimental: 2. hPPARgamma Ligand Binding Assay: The PPAR-gamma ligand binding domain (amino acids 195-475) was expressed with an N-terminal 10×-histidinetag in E. coli cells. The cells were lysed and receptor was purified by means of the epitope tag. The stock solution of protein was diluted to 200 nM in assay buffer (50 mM Tris, 50 mM KCl, pH 8 20 mM CHAPS, 2 mM EDTA 10 mM DTT (Fresh)) just before use.
Test compounds were prepared as 6 mM stock solutions in DMSO. […] The right-most column of wells was used for controls. […] Plates were incubated at room temperature for 2 hrs, and then cooled on ice for 30 minutes. 50 uL samples from each well of a single test plate were simultaneously loaded onto an equilibrated AGTC 96 well gel filtration block (Advanced Genetics Technology Corp.) using a Zymak Rapidplate automated pipettor. The block was placed on top of a clean microtiter plate and centrifuged @1,100×g for 4 min. 200 uL of scintillation fluid was added to each well, the plates were sealed and allowed to equilibrate for at least 4 hours before counting in a Wallac 1250 Microbeta counter.
Ki's were determined from a nonlinear least squares fit of the data to a simple competitive binding model.

`Cc1oc(-c2ccccc2)nc1CCOc1ccc(C[C@H](Nc2ccccc2C(=O)c2cc[n+]([O-])cc2)C(=O)O)cc1` [Example 57, 3-{4-[2-(5-methyl-2-phenyl-oxazol-4-yl)-ethoxy]-phenyl}-2(S)-[2-(pyridineN-oxide-4-carbonyl)-phenylamino]-propionic acid] was tested, and the pEC50 (PPARg) was 6.82 and the pKi (hPPARgamma; PPARg Ki) was 5.90.

In the case of `Cc1oc(-c2ccccc2)nc1CCOc1ccc(CC(Nc2ccccc2C(=O)c2cccc(O)c2)C(=O)O)cc1` (stereo not drawn) [Example 97, 2-[2-(3-hydroxy-benzoyl)-phenylamino]-3-{4-[2-(5-methyl-2-phenyl-oxazol-4-yl)-ethoxy]-phenyl}-propionic acid], the pEC50 (PPARg) was 7.70 and the pKi (hPPARgamma; PPARg Ki) was 8.30.

`O=C(c1ccccc1)c1ccccc1NC(Cc1ccc(OC[C@@H]2CCCN2c2nc3ccccc3o2)cc1)C(=O)O` (stereo partly drawn) [Example 23] showed a pEC50 (PPARg) of 9.00 and a pKi (hPPARgamma; PPARg Ki) of 7.30.

`CN(CCOc1ccc(CC(Nc2ccccc2C(=O)c2ccsc2)C(=O)O)cc1)c1nc2ccccc2o1` (stereo not drawn) [Example 75] was tested, and the pEC50 (PPARg) was 7.00 and the pKi (hPPARgamma; PPARg Ki) was 7.12.

Work on `O=C(c1ccccc1)c1ccccc1NC(Cc1ccc(OC2CCN(c3nc4ccccc4o3)C2)cc1)C(=O)O` (stereo not drawn) [Example 55, 3-[4-(1-Benzoxazol-2-yl-pyrrolidin-3-yloxy)-phenyl]-2-(2-benzoyl-phenylamino)-propionic acid] yielded a pEC50 (PPARg) of 6.34 and a pKi (hPPARgamma; PPARg Ki) of 5.85.

For `Cc1oc(-c2ccccc2)nc1CCOc1ccc(C[C@H](Nc2ccccc2C(=O)c2cccnc2)C(=O)O)cc1` [Example 58, 3-{4-[2-(5-Methyl-2-phenyl-oxazol-4-yl)-ethoxy]-phenyl}-2(S)-[2-(pyridine-3-carbonyl)-phenylamino]-propionic acid], the pEC50 (PPARg) was 9.00 and the pKi (hPPARgamma; PPARg Ki) was 7.52.

`Cc1oc(-c2ccccc2)nc1CCOc1ccc(C[C@H](Nc2ccccc2C(=O)NCCN)C(=O)O)cc1` [Example 89, 2-(S)-(1-carboxy-2-{4-{2-(5-methyl-2-phenyl-oxazol-4-yl)-ethoxy]-phenyl}-ethylamino)-benzoic acid 2-aminoethyl amide hydrochloride] showed a pEC50 (PPARg) of 7.22 and a pKi (hPPARgamma; PPARg Ki) of 5.52.

Work on `COc1ccc(C(=O)c2ccccc2NC(Cc2ccc(OCCN(C)c3nc4ccccc4o3)cc2)C(=O)O)cc1` (stereo not drawn) [Example 110, 3-{4-[2-(Benzoxazol-2-yl-methylamino)-ethoxy]-phenyl}-2-(2-(4-methoxy-benzoyl)-phenylamino)-propionic acid] yielded a pEC50 (PPARg) of 7.19 and a pKi (hPPARgamma; PPARg Ki) of 7.30.

For `Cc1ccc(C(=O)c2ccccc2NC(Cc2ccc(OCCN(C)c3nc4ccccc4o3)cc2)C(=O)O)cc1` (stereo not drawn) [Example 111, 3-{4-[2-(Benzoxazol-2-yl-methylamino)-ethoxy]-phenyl}-2-(2-(4-methyl-benzoyl)-phenylamino)-propionic acid], the pEC50 (PPARg) was 8.00 and the pKi (hPPARgamma; PPARg Ki) was 7.15.

`COC(=O)c1ccccc1N[C@@H](Cc1ccc(OCCc2ccc(N(C)C)cc2)cc1)C(=O)O` [Example 104, 2(S)-(1-carboxy-2-{4-[2-(4-dimethylamino-phenyl)-ethoxy]-phenyl}-ethylamino)-benzoic acid methyl ester] gave a pEC50 (PPARg) of 6.05 and a pKi (hPPARgamma; PPARg Ki) of 5.52.

For `O=C(c1ccccc1)c1ccccc1NC(Cc1ccc(OCCc2cccnc2)cc1)C(=O)O` (stereo not drawn) [Example 123, 2-(2-Benzoyl-phenylamino)-3-[4-(2-pyridin-3-yl-ethoxy]-phenyl]-propionic acid], the pEC50 (PPARg) was 6.21 and the pKi (hPPARgamma; PPARg Ki) was 6.55.

With `COC(=O)[C@H](Cc1ccc(OCc2ccccc2)cc1)NC(C)=CC(=O)c1ccccc1` [Example 2, 3-(4-Benzyloxy-phenyl)-2(S)-(1-methyl-3-oxo-3-phenyl-propenylamino)-propionic acid methyl ester] the “PPARg Fold. Act.” value (PPARg) was 23, the pEC50 (PPARg) was 7.00 and the pKi (hPPARgamma; PPARg Ki) was 6.00.

In the case of `Cc1cccc(C(=O)c2ccccc2NC(Cc2ccc(OCCN(C)c3nc4ccccc4o3)cc2)C(=O)O)c1` (stereo not drawn) [Example 80], the pEC50 (PPARg) was 8.00 and the pKi (hPPARgamma; PPARg Ki) was 8.00.

Compound `Cc1ccc(NC(Cc2ccc(OCCN(C)c3nc4ccccc4o3)cc2)C(=O)O)c(C(=O)c2ccccc2)c1` (stereo not drawn) [Example 19, 3-{4-[2-(benzoxazol-2-yl-methyl-amino)-ethoxy]-phenyl}-2-(2-benzoyl-4-methyl-phenylamino)-propionic acid] has a pEC50 (PPARg) of 7.19 and a pKi (hPPARgamma; PPARg Ki) of 6.73.

In the case of `Cc1oc(-c2ccccc2)nc1CCOc1ccc(CC(Nc2ccccc2C(=O)c2cccc(OCC(N)=O)c2)C(=O)O)cc1` (stereo not drawn) [Example 98, 2-[2-(3-Carbanoylmethoxy-benzoyl)-phenylamino]-3-{4-[2-(5-methyl-2-phenyl-oxazol-4-yl)-ethoxy]-phenyl}-propionic acid], the pEC50 (PPARg) was 6.43 and the pKi (hPPARgamma; PPARg Ki) was 8.00.

`CN(CCOc1ccc(CC(Nc2ccccc2C(=O)c2ccccc2C(F)(F)F)C(=O)O)cc1)c1nc2ccccc2o1` (stereo not drawn) [Example 77] was tested, and the pEC50 (PPARg) was 7.19 and the pKi (hPPARgamma; PPARg Ki) was 6.81.

`O=C(c1ccccc1)c1ccccc1N[C@@H](Cc1ccc(OCCSc2ccc(Cl)cc2)cc1)C(=O)O` [Example 115, 2-(2-Benzoyl-phenylamino)-3-{4-2[-(4-chloro-phenylsulfanyl)ethoxy]-phenyl}-propionic acid] showed a pEC50 (PPARg) of 6.78 and a pKi (hPPARgamma; PPARg Ki) of 6.70.

With `CN(CCOc1ccc(CC(Nc2ccccc2C(=O)c2cccs2)C(=O)O)cc1)c1nc2ccccc2o1` (stereo not drawn) [Example 74] the pEC50 (PPARg) was 7.26 and the pKi (hPPARgamma; PPARg Ki) was 6.10.

`COC(=O)[C@H](Cc1ccc(OCc2ccccc2)cc1)NC(=O)c1coc2ccccc2c1=O` [Example 10, 3-(4-Benzyloxy-phenyl)-2(S)-[(4-oxo-4H-chromene-3-carbonyl)-amino]-propionic acid methyl ester] was tested, and the pEC50 (PPARg) was 6.77 and the pKi (hPPARgamma; PPARg Ki) was 6.52.

`CN(CCOc1ccc(CC(Nc2ccccc2C(=O)c2ccccc2)C(=O)O)cc1)c1nc2ccccc2o1` (stereo not drawn) [Example 15, 3-{4-[2-(benzoxazol-2-yl-methyl-amino)-ethoxy]-phenyl}-2-(2-benzoyl-phenylamino)-propionic acid] was tested, and the pEC50 (PPARg) was 9.00 and the pKi (hPPARgamma; PPARg Ki) was 7.40.

Compound `O=C(c1ccccc1)c1ccccc1NC(Cc1ccc(OC[C@H]2CCCN2c2nc3ccccc3o2)cc1)C(=O)O` (stereo partly drawn) [Example 22] has a pEC50 (PPARg) of 7.70 and a pKi (hPPARgamma; PPARg Ki) of 7.19.

`CN(CCOc1ccc(CC(Nc2cc(F)ccc2C(=O)C2CCCCC2)C(=O)O)cc1)c1nc2ccccc2o1` (stereo not drawn) [Example 50, 3-{4-[2-(Benzoxazol-2-yl-methyl-amino)-ethoxy]-phenyl}-2-(2-cyclohexanecarbonyl-5-fluoro-phenylamino)-propionic acid] gave a pEC50 (PPARg) of 7.30 and a pKi (hPPARgamma; PPARg Ki) of 6.41.

For `CC(=CC(=O)c1ccccc1)N[C@@H](Cc1ccc(OCCN(C)c2nc3ccccc3o2)cc1)C(=O)O` [Example 17, 3-{4-[2-(Benzoxazol-2yl-methyl-amino)-ethoxy]-phenyl}-2(S)-(1-methyl-3-oxo-3-phenyl-propenylamino)-propionic acid dicyclohexylamine salt], the pEC50 (PPARg) was 9.00 and the pKi (hPPARgamma; PPARg Ki) was 7.10.

For `COC(=O)C(Cc1ccc(OCc2ccccc2)cc1)Nc1ccccc1C(=O)OCc1ccccc1` (stereo not drawn) [Example 5], the “PPARg Fold. Act.” value (PPARg) was 10, the pEC50 (PPARg) was 5.05 and the pKi (hPPARgamma; PPARg Ki) was < 5.52.

Work on `Cc1oc(-c2ccccc2)nc1CCOc1ccc(CC(Nc2ccccc2C(=O)C2CCCCC2)C(=O)O)cc1` (single isomer, unassigned) [Example 53, 2-(2-Cyclohexanecarbonyl-phenylamino)-3-{4-[2-(5-methyl-2-phenyl-oxazol-4-yl)-ethoxy]-phenyl}-propionic acid] yielded a pEC50 (PPARg) of 7.60 and a pKi (hPPARgamma; PPARg Ki) of 7.15.

With `Cc1oc(-c2ccccc2)nc1CCOc1ccc(C[C@H](Nc2ccccc2C(=O)c2ccc[n+]([O-])c2)C(=O)O)cc1` [Example 59, 3-{4-[2-(5-methyl-2-phenyl-oxazol-4-yl)-ethoxy]-phenyl}-2(S)-[2-(pyridine-N-oxide-3-carbonyl)-phenylamino]-propionic acid] the pEC50 (PPARg) was 7.02 and the pKi (hPPARgamma; PPARg Ki) was 7.00.

`CC(=CC(=O)c1cccc(I)c1)N[C@@H](Cc1ccc(OCCN(C)c2nc3ccccc3o2)cc1)C(=O)O` [Example 18, 3-{4-[2-(Benzoxazol-2-yl-methyl-amino)-ethoxy]-phenyl}-2(S)-[3-(3-iodo-phenyl)-1-methyl-3-oxo-propenylamino]-propionic acid dicyclohexylamine salt] showed a pEC50 (PPARg) of 8.30 and a pKi (hPPARgamma; PPARg Ki) of 8.00.

`COc1ccccc1C(=O)c1ccccc1NC(Cc1ccc(OCCN(C)c2nc3ccccc3o2)cc1)C(=O)O` (stereo not drawn) [Example 79] was tested, and the pEC50 (PPARg) was 7.52 and the pKi (hPPARgamma; PPARg Ki) was 7.30.

With `COC(=O)c1ccccc1N[C@@H](Cc1ccc(OCCSc2ccc(Cl)cn2)cc1)C(=O)O` [Example 70] the pEC50 (PPARg) was 6.70 and the pKi (hPPARgamma; read-out: PPARg Ki) was 6.60.

`CC(=CC(=O)c1ccccc1)NC(Cc1ccc(OCCN(C)c2ccccn2)cc1)C(=O)O` (stereo not drawn) [Example 14, 2-(1-Methyl-oxo-3-phenyl-propenylamino)-3{4-[2-(methyl-pyridin-2-yl-amino)-ethoxy]-phenyl}-propionic acid dicyclohexylamine salt] was tested, and the “PPARg Fold. Act.” value (PPARg) was 18, the pEC50 (PPARg) was 9.00 and the pKi (hPPARgamma; PPARg Ki) was 7.10.

With `CCCNS(=O)(=O)c1ccc(C(=O)c2ccccc2NC(Cc2ccc(OCCc3nc(-c4ccccc4)oc3C)cc2)C(=O)O)cc1` (stereo not drawn) [Example 93, 3-{4-[2-(5-methyl-2-phenyl-oxazol-4-yl)-ethoxy]-phenyl}-2-[2-(4-propylsulfamoyl-benzoyl)-phenylamino]-propionic acid] the pEC50 (PPARg) was 7.26 and the pKi (hPPARgamma; PPARg Ki) was 7.00.

`CN(CCOc1ccc(CC(Nc2ccccc2C(=O)C2CCCC2)C(=O)O)cc1)c1nc2ccccc2o1` (stereo not drawn) [Example 48, 3-{4-[2-(Benzoxazol-2-yl-methyl-amino)-ethoxy]-phenyl}-2-(2-cyclopentanecarbonyl-phenylamino)-propionic acid] gave a pEC50 (PPARg) of 7.70 and a pKi (hPPARgamma; PPARg Ki) of 6.94.

`CN(CCOc1ccc(CC(Nc2ccccc2C(=O)c2ccc(C(F)(F)F)cc2)C(=O)O)cc1)c1nc2ccccc2o1` (stereo not drawn) [Example 73] showed a pEC50 (PPARg) of 7.60 and a pKi (hPPARgamma; PPARg Ki) of 6.94.
